The results in this text go back to US20230202997A1, “CHROMANOL, QUINONE OR HYDROQUINONE COMPOUNDS FOR TREATMENT OF SEPSIS” (Sulfateq B.V., priority 2020, published 2023).

Assay [1] has as its system mitochondrial oxidative stress in HUVEC. Kind of assay: LPS-induced mitochondrial superoxide in HUVEC (MitoSox). The assay is classed as cell-based, Human. The settings on record: 10 μM for 30 min, LPS 100 ng/ml 24 hours. The procedure:
(§1) Human Umbilical Cord Endothelial Cells (HUVEC, Lonza CC-2519) were maintained on 1% gelatin-coated culture flasks in RPMI1640 medium containing 20% fetal bovine serum, 2 mM Glutamine (Sigma-Aldrich), 1% Penicillin-Streptomycin solution (Sigma-Aldrich) and 50 μg/ml Bovine Pituitary Extract (Invitrogen). HUVEC were passaged by trypsinization when the cultures reach a confluency of 70%. For all experiments, HUVEC were seeded at 0.6·10^5 cells/cm^2 and allowed to adhere for 24 hours.
(§2) The production of cellular and mitochondrial oxidative stress was measured using fluorescent probes for cellular and mitochondrial superoxide, i.e. dihydroethidium (DHE) and MitoSox (ThermoFisher), respectively. HUVEC were incubated with BN-80933, SUL-138 or SUL-150 (all 10 μM) for 30 min. Next, HUVEC were exposed to LPS (100 ng/ml) for an additional 24 hours. In the final hour of incubation, 2.5 μM of DHE or MitoSox was applied to each sample. HUVEC were washed in PBS and fixed in 4% paraformaldehyde at room temperature for 15 min. Nuclear staining was performed by 5 μM […] (DAPI) and fluorescence intensity of the samples was recorded in a CLARIOStar Plus plate reader (BMG Labtech) equipped with the appropriate filter sets. Fluorescence recordings for DHE and MitoSox were corrected for DAPI fluorescence. All experiments were performed in quadruplicate.

Assay [2] has as its system IL-1β mRNA expression. Kind of assay: Endothelial inflammatory activation after endotoxin, IL-1β mRNA (Example 5). It counts as cell-based, Human. The settings on record: HUVEC; 10 μM for 30 min. The procedure:
as §1
(§3) HUVEC cells were lysed in triZOL reagens (Invitrogen) and total RNA isolated according to manufacturers' instruction. 1 μg total RNA per sample was reverse transcribed using the FirstAid Reverse Transcription Kit (ThermoFisher). Copy-DNA equivalents of 5 ng total RNA were amplified on a ViiA7 Real-time PCR system (ThermoFisher, Waltham, Mass.) using iTaq Universal SYBR Green Supermix (Bio-Rad, Hercules, Calif.) and primers specific for tumor necrosis factor alpha (TNFα; sense 5′-[…]-3′, antisense 5′-[…]-3′), interleukin 1 beta (IL-1β; sense 5′-[…]-3′, antisense 5′-[…]-3′), interleukin-6 (IL-6; sense 5′-[…]-3′, antisense 5′-[…]-3′) and beta actin (ACTB; sense 5′-[…]-3′, antisense 5′-[…]-3′) as loading control. Amplification was performed for 40 cycles of 95° C. for 30 s, 60° C. for 1 min. Relative mRNA expression was calculated according to the δδCt-method.

The subject of assay [3] is NO production in RAW264.7 macrophages. Kind of assay: Macrophage NO production (nitrate in conditioned medium), basal and after LPS. The assay is classed as cell-based, Mouse. The procedure: Mouse macrophage RAW264.7 cells (ATCC #TIB-71) were maintained in DMEM medium containing 10% fetal bovine serum, and 1% Penicillin-Streptomycin solution (Sigma-Aldrich). […] For all experiments, RAW264.7 cells were seeded at 0.5·10^5 cells/cm^2 and allowed to adhere for 24 hours. Cellular production of NO was approximated by measuring nitrate concentrations in culture media using the Measure-IT™ High-Sensitivity Nitrite Assay Kit (#M36051, ThermoFisher) according to manufacturer's instructions. […] Therefore, nitrate concentrations in conditioned media are a good approximate to assess cellular NO production. 50 μl conditioned medium derived from a single 96-wells plate well was used per assay and normalized against protein concentration. All experiments were performed in quadruplicate. LPS induces macrophage NO production by activating iNOS. RAW264.7 macrophages were pre-treated with vehicle (DMSO), BN-80933, SUL-138, or SUL-150 or (all 10 μM) prior to endotoxin (LPS 100 ng/ml) exposure for 24 hours. The nitrate levels in the conditioned medium from LPS exposed RAW264.7 macrophages averaged at 83 pmol/mg protein (˜16-fold increase versus non-exposed RAW264.7 cells, p=0.001).

Assay [4] deals with cytoplasmic oxidative stress in HUVEC. Kind of assay: LPS-induced cellular superoxide in HUVEC (DHE). It counts as cell-based, Human. The settings on record: 10 μM for 30 min, LPS 100 ng/ml 24 hours. On the procedure:
as §1, §2

For assay [5], the system named is TNFα mRNA expression. Kind of assay: Endothelial inflammatory activation after endotoxin, TNFα mRNA (Example 5). The assay is classed as cell-based, Human. The settings on record: HUVEC; 10 μM for 30 min. On the procedure:
as §1, §3

Assay [6] concerns NO production in HUVEC. Kind of assay: Endothelial NO production (nitrate in conditioned medium), basal and after LPS. It counts as cell-based, Human. To be noted: 10 μM pre-treatment, LPS 100 ng/ml for 24 hours. The procedure:
as §1
Cellular production of NO was approximated by measuring nitrate concentrations in culture media using the Measure-IT™ High-Sensitivity Nitrite Assay Kit (#M36051, ThermoFisher) according to manufacturer's instructions. […] Therefore, nitrate concentrations in conditioned media are a good approximate to assess cellular NO production. 50 μl conditioned medium derived from a single 96-wells plate well was used per assay and normalized against protein concentration. All experiments were performed in quadruplicate.
Endotoxins suppress endothelial NO production by limiting the activity of eNOS. HUVEC were pre-treated with vehicle (DMSO), BN-80933, SUL-138, or SUL-150 or (all 10 μM) prior to endotoxin (LPS 100 ng/ml) exposure for 24 hours. The nitrate levels in the conditioned medium from endothelial cells exposed to LPS averaged at 160 pmol/mg protein (˜33% reduction versus non LPS exposed HUVEC, p=0.002), which was lower than basal control levels. BN-80933 further suppressed the nitrate levels in the conditioned medium (FIG. 7A) to an average of 90 pmol/mg protein (p=0.008).

Assay [7] deals with IL-1β mRNA expression. Kind of assay: Inhibition of LPS-induced IL-1β mRNA expression in HUVEC. To be noted: 10 μM for 30 min, then LPS 24 hours. The assay is classed as cell-based, Human. On the procedure: as §1
(§4) HUVEC and NRK52E cells were pre-incubated with SUL compounds (10 μM) for 30 min and subsequently exposed to LPS for 24 hours under standard culture conditions. Cells were lysed in triZOL reagens (Invitrogen) and total RNA isolated according to manufacturers' instruction. 1 μg total RNA per sample was reverse transcribed using the FirstAid Reverse Transcription Kit (ThermoFisher). Copy-DNA equivalents of 5 ng total RNA were amplified on a ViiA7 Real-time PCR system (ThermoFisher, Waltham, Mass.) using iTaq Universal SYBR Green Supermix (Bio-Rad, Hercules, Calif.) and primers specific for tumor necrosis factor alpha, interleukin 1 beta, interleukin-6 and beta actin as loading control. Amplification was performed for 40 cycles of 95° C. for 30 s, 60° C. for 1 min. Relative mRNA expression was calculated as 2^−(Cq^gene^−Cq^reference^) and normalized to unstimulated control cells (100% inhibition) and vehicle-treated and LPS exposed cells (0% inhibition). The following primers were used: […]

In assay [8] the test system is HUVEC. Kind of assay: Cell viability after hypothermia-rewarming stress (Neutral Red). It counts as cell-based, Human. To be noted: 10 μM for 1 hour, 4° C. for 24 hours followed by 37° C. for 3 hours. The procedure:
as §1
HUVEC were pre-treated with BN-80933, SUL-138 or SUL-150 (all 10 μM) for 1 hour in a humidified incubator at 37° C. Following pre-treatment, HUVEC were placed in a cold room (2-8° C.) for 24 hours and subsequently placed back at 37° C. for a 3 hour rewarming period. After 1 hour of rewarming, cell culture medium was replaced by prewarmed and filtered 0.4 mg/mL Neutral Red (#N463 8, Sigma-Aldrich) in culture medium. After the remaining 2 hour rewarming period, HUVEC were washed with PBS and NRU was solubilized in 100 μL resorption solution (50% ethanol, 1% ascetic acid in dH2O). The absorbance was measured at a wavelength of 550 nm on a BioTek ELx808 plate reader. The recorded OD550 nm values were normalized to control samples that were maintained at 37° C. at all times, which were assumed to be 100% viable.

Assay [9] concerns IL-6 mRNA expression. Kind of assay: Endothelial inflammatory activation after endotoxin, IL-6 mRNA (Example 5). To be noted: HUVEC; 10 μM for 30 min. The assay is classed as cell-based, Human. The procedure: as §1, §3
The test system of assay [10] is IL-6 mRNA expression. Kind of assay: Inhibition of LPS-induced IL-6 mRNA expression in HUVEC. It counts as cell-based, Human. The settings on record: 10 μM for 30 min, then LPS 24 hours. The procedure: as §1, §4
The subject of assay [11] is TNFα mRNA expression. Kind of assay: Inhibition of LPS-induced TNFα mRNA expression in HUVEC. The assay is classed as cell-based, Human. To be noted: 10 μM for 30 min, then LPS 24 hours. The procedure: as §1, §4
Assay [12] relates to TNFα mRNA expression. Kind of assay: Inhibition of LPS-induced TNFα mRNA expression in NRK52E. The settings on record: 10 μM for 30 min, then LPS 24 hours. The assay is classed as cell-based, Rat. The procedure: (§5) Rat kidney epithelial cells (ATCC #CRL-1571) were maintained in DMEM medium containing 10% fetal bovine serum, and 1% Penicillin-Streptomycin solution (Sigma-Aldrich). NRK52E cells were passaged by trypsinization when the cultures reached a confluency of 70%. For all experiments, NRK52E cells were seeded at 0.6·10^5 cells/cm^2 and allowed to adhere for 24 hours.
as §4

Assay [13] concerns sepsis induction in Drosophila melanogaster (Staphylococcus aureus). Kind of assay: S. aureus sepsis in flies, survival and negative geotaxis. To be noted: flies with S. aureus sepsis. It counts as in vivo. The procedure:
W1118 flies were bred and housed at 25° C. with a 12 h:12 h light/dark-cycle. Flies were kept in vials containing approximately 5 mL of standard yeast-cornmeal medium. Flies kept as a stock were flipped to fresh vials weekly. The used yeast-cornmeal medium was prepared to the instructions of Stocker and Gallant's ‘Drosophila Methods and Protocols’ and consisted of 100 grams yeast, 75 grams glucose, 8 grams agar, 55 grams cornmeal, and 10 grams wheat flour per litre of water. After boiling, phosphoric acid and propionic acid were added to the mixture to prevent fungal growth.
Staphylococcus aureus (S. aureus) was aerobically cultured overnight in 2.5% tryptic soy broth (TSB) at 37° C. with continuous rotation (200 rounds per minute), from an S. aureus glycerol stock kept at −80° C. For each experiment, a fresh culture was prepared one day prior to the experiment. For bacterial infection, optical density (OD) was measured the following day at 600 nm. Clean TSB was used as OD=0.00 and the bacterial culture was diluted to OD=2.20 with PBS. Next, 1.0 mL of the bacterial culture (OD=2.20) was centrifuged at 14,000 g for 1 minute, the supernatant was discarded, and the bacterial pellet resuspended in 1.0 mL PBS. Serial dilutions (5× and 25× diluted in PBS with optical densities of approximately 1.05 and 0.25, respectively) were used in the appropriate experiments. […]

Assay [14] relates to IL-6 mRNA expression. Kind of assay: Inhibition of LPS-induced IL-6 mRNA expression in NRK52E. To be noted: 10 μM for 30 min, then LPS 24 hours. The assay is classed as cell-based, Rat. The procedure: as §5, §4

As to `Cc1c(C)c2c(c(C)c1O)CC[C@](C)(C(=O)N1CCNCC1)O2` [SUL-150, (R)-(6-hydroxy-2,5,7,8-tetramethylchroman-2-yl)(piperazin-1-yl)methanone], the “LPS-induced mitochondrial oxidative stress (MitoSox)” value in assay [1] was “precluded the LPS-induced increase in mitochondrial oxidative stress”. For the same compound, the “LPS-induced mRNA expression of IL-1β” value in [2] is “precluded the LPS-induced increase in IL-1β and IL-6”. The “LPS-induced increase in extracellular nitrate level” value in [3] (10 μM pre-treatment, LPS 100 ng/ml for 24 hours) is “Neither SUL-138 nor SUL-150 strongly suppressed the LPS-induced increase in nitrate production”. In addition, in assay [3] (no LPS, 10 μM), the “basal production of extracellular nitrate” value is “Neither BN-80933, SUL-138, nor SUL-150 affected the basal production of extracellular nitrate”. In assay [4], the “LPS-induced cytoplasmic oxidative stress (DHE)” value is reported as “mitigates the induction of cytoplasmic oxidative stress”. In addition, in assay [5], the “LPS-induced mRNA expression of TNFα” value is reported as “precludes the induction of mRNA expression of the pro-inflammatory cytokine TNFα”. In addition, the “nitrate levels in the conditioned medium after LPS” value in assay [6] was “mitigated the LPS-induced reduction in nitrate levels and their levels did not change from basal nitrate level”. For the same compound, the “inhibition of LPS-induced mRNA expression of IL-1β” value in assay [7] is recorded as 78.9 ± 6.0 %. The “reduction in cell viability versus normothermic control cells” value in assay [8] is recorded as ~15%. In assay [9], the “LPS-induced mRNA expression of IL-6” value is “precluded the LPS-induced increase in IL-1β and IL-6”. In assay [10], the “inhibition of LPS-induced mRNA expression of IL-6” value is reported as 69.3 ± 3.9 %. For the same compound, the “inhibition of LPS-induced mRNA expression of TNFα” value in assay [11] amounted to 79.8 ± 4.1 %.

Take `Cc1c(C)c2c(c(C)c1O)CC[C@@](C)(C(=O)N1CCNCC1)O2` [SUL-151, (S)-(6-hydroxy-2,5,7,8-tetramethylchroman-2-yl)(piperazin-1-yl)methanone]: the figures for the “inhibition of LPS-induced mRNA expression of TNFα” value in assay [12] and in assay [11] were 72.1 ± 14.5 % and 72.5 ± 3.2 %, respectively. In addition, the Geotaxis entry in assay [13] (3 mM SUL-151, 24 hr and 48 hr after induction) was “improved both at 24 hr and 48 hr”. Also, the “Survival after 24 hr” value in assay [13] (3 mM SUL-151 intrathoracic injection with the bacteria) amounted to 80%. The entries for the “inhibition of LPS-induced mRNA expression of IL-6” value in assay [14] and in assay [10] were 83.1 ± 8.3 % and 65.4 ± 4.6 %, respectively. For the same compound, in assay [7], the “inhibition of LPS-induced mRNA expression of IL-1β” value is given as 76.7 ± 1.2 %.
